Like-named read-outs stand apart in the source and are kept apart here.
Columns and labels:
[1] = target: T1, human OCT1 (Homo sapiens, UniProt O15245); assay: Inhibition of OCT1-mediated metformin uptake in stably transfected HEK cells; assay type: cell-based; settings: for IC50: 5 µM [14C]metformin uptake, 5 min, HEK-OCT1, means ± SE of 3 experiments
T1 sequence (O15245 1-554): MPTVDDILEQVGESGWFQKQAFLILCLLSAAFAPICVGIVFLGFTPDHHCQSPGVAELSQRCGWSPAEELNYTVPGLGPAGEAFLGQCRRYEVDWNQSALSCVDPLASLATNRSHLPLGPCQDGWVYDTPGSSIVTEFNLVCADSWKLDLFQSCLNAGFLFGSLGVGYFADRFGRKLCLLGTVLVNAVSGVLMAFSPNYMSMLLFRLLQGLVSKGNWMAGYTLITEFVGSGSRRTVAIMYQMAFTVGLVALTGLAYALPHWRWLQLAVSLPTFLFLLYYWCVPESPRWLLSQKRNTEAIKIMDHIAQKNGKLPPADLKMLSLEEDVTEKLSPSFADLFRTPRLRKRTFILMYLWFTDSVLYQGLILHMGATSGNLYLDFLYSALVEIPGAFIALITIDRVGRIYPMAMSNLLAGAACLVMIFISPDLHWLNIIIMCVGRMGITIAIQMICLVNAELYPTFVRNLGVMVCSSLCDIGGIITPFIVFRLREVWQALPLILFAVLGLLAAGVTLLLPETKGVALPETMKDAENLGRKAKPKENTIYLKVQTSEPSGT
Procedure: (§1) SLC22A1 cDNA and SLC22A2 cDNA had been PCR-amplified from human liver and kidney, respectively, as reported elsewhere and cDNAs were provided by the German Cancer Research Center; the study and the use of the tissue were approved by the institutional review board of the German Cancer Center, Heidelberg, Germany. Since the data were analyzed anonymously, and tissues were left-over samples from diagnostic procedures, written informed consent had not been required and obtained. IRB specifically waived the need for consent due to the fact the human tissue material used was fully anonymized. SLC22A3 cDNA was amplified using SLC22A3-TrueClone (Origene, Rockville, MD, USA) as the template. SLC22A1 cDNA was cloned into the expression vector pcDNA3.1/Hygro(-) (Invitrogen, Darmstadt, Germany), SLC22A2 and SLC22A3 cDNA into pcDNA3.1(+) (Invitrogen). […] HEK cells were grown in DMEM (Sigma) supplemented with 10% fetal bovine serum (Sigma), 100 U⋅ml^−1 penicillin, and 100 µg⋅ml^−1 streptomycin (Lonza, Basel, Switzerland) at 37°C and 5% CO2. HEK cells were transfected with Metafectene Pro (Biontex, München, Germany). Selection of clones stably expressing OCT1 was carried out with 0.5 mg⋅ml^−1 hygromycin as described. Similarly, clones stably expressing OCT2 or OCT3 were selected with 800 µg⋅ml^−1 G418. HEK cells stably transfected with the empty pcDNA3.1(+) vector served as controls (HEK-Co). Cells were incubated with 5 mM butyrate 24 h before use to increase protein levels of recombinant transporters.
(§2) HEK cells (400000 cells/well) were seeded into 24-well cell culture plates (Greiner Bio-One, Frickenhausen, Germany) and grown for 48 h. Cell adherence was improved by coating plates with poly-L-lysine (Biochrom AG, Berlin, Germany) prior to cell plating. All uptake studies were carried out at 37°C as described. […] Uptake was stopped at indicated time points by removing the uptake buffer and immediately washing the cells 3 times with ice-cold uptake buffer. Cells were lysed with 0.2% SDS and intracellular radioactivity was determined by liquid scintillation counting (Hidex 300SL TDCR liquid scintillation counter, Turku, Finland).
(§3) OCT-specific metformin uptake was obtained by subtracting metformin uptake in the presence of 2 mM unlabeled 1-methyl-4-phenylpyridinium (MPP) from that in its absence. […] OCT-specific metformin uptake in the presence of a PPI was then calculated as percentage of that in the absence of the respective PPI (100% uninhibited). For each PPI concentration, 3 individual experiments each with 3 parallel measurements were performed. Apparent IC50 values for inhibition of metformin uptake by PPIs were calculated for each individual experiment by fitting the values to the Hill equation using GraphPad Prism 4 (GraphPad Software Inc., La Jolla, CA, USA). Values in Table 1 are given as the means ± SE of the 3 individual experiments.

[2] = target: T2, human OCT2 (Homo sapiens, UniProt O15244); assay: Inhibition of OCT2-mediated metformin uptake in stably transfected HEK cells; assay type: cell-based; settings: for IC50: 5 µM [14C]metformin uptake, 5 sec, HEK-OCT2, means ± SE of 3 experiments
T2 construct: OCT2: NP_003049.2; expressed in transfected cells; host or cells: HEK293 (ATCC), stably transfected with pcDNA3.1(+)-SLC22A2
T2 sequence (O15244 1-555): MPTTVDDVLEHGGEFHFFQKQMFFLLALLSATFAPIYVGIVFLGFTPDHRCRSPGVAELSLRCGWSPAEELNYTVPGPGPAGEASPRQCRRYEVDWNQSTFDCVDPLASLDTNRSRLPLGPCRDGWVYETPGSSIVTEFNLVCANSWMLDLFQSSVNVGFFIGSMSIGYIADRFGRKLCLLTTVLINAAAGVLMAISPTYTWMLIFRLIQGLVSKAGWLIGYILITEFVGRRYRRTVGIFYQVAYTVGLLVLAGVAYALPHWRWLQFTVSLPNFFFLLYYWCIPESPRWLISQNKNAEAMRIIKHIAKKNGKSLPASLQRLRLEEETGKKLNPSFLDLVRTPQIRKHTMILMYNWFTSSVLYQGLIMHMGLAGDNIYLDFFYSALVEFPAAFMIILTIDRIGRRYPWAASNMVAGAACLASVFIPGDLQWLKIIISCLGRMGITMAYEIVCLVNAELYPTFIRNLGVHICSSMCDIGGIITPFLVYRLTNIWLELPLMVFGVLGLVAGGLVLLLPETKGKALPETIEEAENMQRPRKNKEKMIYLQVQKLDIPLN
Procedure: as §1, §2, §3

[3] = system: OCT1; design: method as in PMID 21103969; settings: transport substrate; cited from earlier work
[4] = system: OCT2; design: method as in PMID 21103969; settings: transport substrate; cited from earlier work
[5] = system: OCT3; design: method as in PMID 21103969; settings: transport substrate; cited from earlier work
[6] = Pharmacokinetic data of PPIs in humans; assay type: in vivo; settings: maximal total concentration in portal venous blood
[7] = humans, maximal total concentration in systemic circulation, cited from earlier work
[8] = design: method as in earlier work; settings: computed property from PubChem Compound database; cited from earlier work
[9] = 5 µM metformin, 2 mM unlabeled MPP

SMILES	IC50 [1] [µM]	IC50 [2] [µM]	Heavy atom count [8]	Tautomer count [8]	also measured
C[n+]1ccc(-c2ccccc2)cc1 [MPP, 1-methyl-4-phenylpyridinium]	–	–	–	–	Metformin uptake by HEK-OCT1 in the presence of MPP [1, 9]: almost completely absent; Metformin uptake by HEK-OCT2 in the presence of MPP [2, 9]: almost completely absent; Km [3]: 15 to 32 µM; Km [4]: 3 to 19 µM; Km [5]: 47 to 83 µM
Cc1c(OCC(F)(F)F)ccnc1C[S+]([O-])c1nc2ccccc2[nH]1 (stereo not drawn) [Lansoprazole]	35.8 ± 5.8	9.5 ± 3.8	25	0	Calculated Cport.vn. ([6]; equation 1 in ref 56, dosage 30 mg (81 µmol)): 7.8 µM; Cmax ([7]; dosage 30 mg (81 µmol)): 2700 nM
COc1ccc2[nH]c([S+]([O-])Cc3ncc(C)c(OC)c3C)nc2c1 (stereo not drawn) [Omeprazole]	15.7 ± 3.8	6.7 ± 2.1	24	2	Calculated Cport.vn. ([6]; equation 1 in ref 56, dosage 20 mg (58 µmol)): 5.4 µM; Cmax ([7]; dosage 20 mg (58 µmol)): 1800 nM
COc1ccnc(C[S+]([O-])c2nc3ccc(OC(F)F)cc3[nH]2)c1OC (stereo not drawn) [Pantoprazole]	30.8 ± 8.8	2.8 ± 0.9	26	2	Calculated Cport.vn. ([6]; equation 1 in ref 56, dosage 40 mg (104 µmol)): 12.0 µM; Cmax ([7]; dosage 40 mg (104 µmol)): 5500 nM
COCCCOc1ccnc(C[S+]([O-])c2nc3ccccc3[nH]2)c1C (stereo not drawn) [Rabeprazole]	3 ± 1.7	5.7 ± 0.5	25	0	OCT1-mediated metformin uptake at low PPI concentrations ([1]; low concentrations of PPI, Figure 3): activated; Calculated Cport.vn. ([6]; equation 1 in ref 56, dosage 20 mg (56 µmol)): 4.7 µM; Cmax ([7]; dosage 20 mg (56 µmol)): 1200 nM
COc1ccc2[nH]c([S+]([O-])Cc3ncc(C)c(OC)c3C)nc2n1 (stereo not drawn) [Tenatoprazole]	23.3 ± 7.1	20.3 ± 7.2	24	3	Calculated Cport.vn. ([6]; equation 1 in ref 56, dosage 40 mg (116 µmol)): 17.2 µM; Cmax ([7]; dosage 40 mg (116 µmol)): 10000 nM

— PMC3136501 (PLoS ONE, 2011)
